Measured values: patent US12396458B2, “Fused ring substituted aromatic compound and preparation method therefor, herbicidal composition, and use thereof” (Qingdao Kingagroot Chemical Compound Co., Ltd., priority 2020, dated 2025)

Assays:
Assay in all cases: Weeding effect in post-emergence stage (greenhouse pot test)
Type in all cases: in vivo
[1] = system: Alopecurus japonicus; conditions: 3 weeks after application, fresh weight control rate
Source text: (§1) The activity level criteria for plant damage (i.e., growth control rate) are as follows:
(§2) Level 5: growth control rate is above 85%; • Level 4: growth control rate is greater than or equal to 60% and less than 85%; • Level 3: growth control rate is greater than or equal to 40% and less than 60%; • Level 2: growth control rate is greater than or equal to 20% and less than 40%; • Level 1: growth control rate is greater than or equal to 5% and less than 20%; • Level 0: growth control rate is less than 5%.
(§3) The above growth control rates are fresh weight control rates.
(§4) Experiment on weeding effect in post-emergence stage:
(§5) Monocotyledonous and dicotyledonous weed seeds (Descurainia sophia, Capsella bursa-pastoris, Abutilon theophrasti, Galium aparine, Stellaria media, Lithospermum arvense, Rorippa indica, Alopecurus aequalis, Alopecurus japonicus, Eleusine indica, Beckmannia syzigachne, Sclerochloa dura, Phleum paniculatum, Veronica didyma Tenore, Bromus japonicus, Aegilops tauschii, Phalaris arundinacea, Amaranthus retrojlexus, Chenopodiaceae, Commelina communis, Sonchus arvensis, convolvulus arvensis, Cirsium setosum, Solanum nigrum, Acalypha australis, Digitaria sanguinalis, Echinochloa crusgalli, Setaria viridis, Setaria glauca, Leptochloa chinensis, Monochoria vaginalis, Sagittaria trifolia, Scirpus juncoides, Cyperus rotundus, Cyperus iria, Cyperus difformis, Fimbristylis, Portulaca oleracea, Xanthium sibiricum, Pharbitis nil, Conyza japonica, etc.) and major crop seeds (wheat, corn, rice, soybean, cotton, oilseed rape, millet, sorghum, potato, sesame, ricinus, etc.) were placed in plastic pots filled with soil, then covered with 0.5-2 cm of soil, allowed to grow in a good greenhouse environment. After 2 weeks of sowing, the test plants were treated in the 2-3 leaf stage. The tested compounds of the present invention were respectively dissolved in acetone, then added with Tween 80 and 1.5 liter/ha of emulsifiable concentrate of methyl oleate as synergist, diluted with a certain amount of water to obtain a solution with a certain concentration, and sprayed with a spray tower onto the plants. After the application, the plants were cultured for 3 weeks in the greenhouse, and then the experimental results of the weeding were counted. The doses of the used compounds were 500, 250, 125, 60, 15, 7.5 g a.i./ha, and the averages were obtained by repeating for three times.

[2] = system: Beckmannia syzigachne; conditions: 3 weeks after application, fresh weight control rate
Source text: as §1, §2, §3, §4, §5

[3] = system: Capsella bursa-pastoris; conditions: 3 weeks after application, fresh weight control rate
Source text: as §1, §2, §3, §4, §5

[4] = system: Conyza japonica; conditions: post-emergence, 3 weeks after application, fresh weight control rate
Source text: as §1, §2, §3, §4, §5

Row | SMILES | Activity level (growth control rate), Alopecurus japonicus ([1]; dose 15 g a.i./ha) | Activity level (growth control rate), Beckmannia syzigachne ([2]; dose 15 g a.i./ha) | Activity level (growth control rate), Capsella bursa-pastoris ([3]; dose 15 g a.i./ha) | Activity level (growth control rate), Conyza japonica ([4]; dose 15 g a.i./ha) | Activity level (growth control rate), Alopecurus japonicus ([1]; dose 125 g a.i./ha) | Activity level (growth control rate), Beckmannia syzigachne ([2]; dose 125 g a.i./ha) | Activity level (growth control rate), Capsella bursa-pastoris ([3]; dose 125 g a.i./ha) | Activity level (growth control rate), Conyza japonica ([4]; dose 125 g a.i./ha)
1 | COCCOC(=O)C12CCCC1C(c1cc(-n3c(=O)cc(C(F)(F)F)n(C)c3=O)c(F)cc1Cl)=NO2 (centres unmarked) [Compound 245] | 5 (Level 5: growth control rate is above 85%) | 5 (Level 5: growth control rate is above 85%) | 5 (Level 5: growth control rate is above 85%) | 4 (Level 4: growth control rate is greater than or equal to 60% and less than 85%) |  |  |  | 
2 | Cn1c(C(F)(F)F)cc(=O)n(-c2cc(C3=NOC4(C(=O)OCC5CCCO5)CCCC34)c(Cl)cc2F)c1=O (centres unmarked) [Compound 261] | 5 (Level 5: growth control rate is above 85%) | 5 (Level 5: growth control rate is above 85%) | 5 (Level 5: growth control rate is above 85%) | 4 (Level 4: growth control rate is greater than or equal to 60% and less than 85%) |  |  |  | 
3 | CC(C)=NOC(=O)C12CCCC1C(c1cc(-n3c(=O)cc(C(F)(F)F)n(C)c3=O)c(F)cc1Cl)=NO2 (centres unmarked) [Compound 278] | 5 (Level 5: growth control rate is above 85%) | 5 (Level 5: growth control rate is above 85%) | 5 (Level 5: growth control rate is above 85%) | 4 (Level 4: growth control rate is greater than or equal to 60% and less than 85%) |  |  |  | 
4 | Cc1cc(C)n(C(=O)C23CCCC2C(c2cc(-n4c(=O)cc(C(F)(F)F)n(C)c4=O)c(F)cc2Cl)=NO3)n1 (centres unmarked) [Compound 333] | 4 (Level 4: growth control rate is greater than or equal to 60% and less than 85%) | 4 (Level 4: growth control rate is greater than or equal to 60% and less than 85%) | 4 (Level 4: growth control rate is greater than or equal to 60% and less than 85%) | 4 (Level 4: growth control rate is greater than or equal to 60% and less than 85%) |  |  |  | 
5 | COC(=O)C12CCOC1C(c1cc(-n3c(=O)cc(C(F)(F)F)n(C)c3=O)c(F)cc1Cl)=NO2 (centres unmarked) [Compound 372] |  |  |  |  | 4 (Level 4: growth control rate is greater than or equal to 60% and less than 85%) | 4 (Level 4: growth control rate is greater than or equal to 60% and less than 85%) | 5 (Level 5: growth control rate is above 85%) | 4 (Level 4: growth control rate is greater than or equal to 60% and less than 85%)
6 | Cn1c(C(F)(F)F)cc(=O)n(-c2cc(C3=NOC4(C(=O)OCCCl)CCCC34)c(Cl)cc2F)c1=O (centres unmarked) [Compound 424] | 5 (Level 5: growth control rate is above 85%) | 5 (Level 5: growth control rate is above 85%) | 5 (Level 5: growth control rate is above 85%) | 5 (Level 5: growth control rate is above 85%) |  |  |  | 
7 | CCOCOC(=O)C12CCCC1C(c1cc(-n3c(=O)cc(C(F)(F)F)n(C)c3=O)c(F)cc1Cl)=NO2 (centres unmarked) [Compound 425] | 5 (Level 5: growth control rate is above 85%) | 5 (Level 5: growth control rate is above 85%) | 5 (Level 5: growth control rate is above 85%) | 4 (Level 4: growth control rate is greater than or equal to 60% and less than 85%) |  |  |  | 
8 | Cn1c(C(F)(F)F)cc(=O)n(-c2cc(C3=NOC4(C(=O)Oc5ccccc5)CCCC34)c(Cl)cc2F)c1=O (centres unmarked) [Compound 426] | 5 (Level 5: growth control rate is above 85%) | 4 (Level 4: growth control rate is greater than or equal to 60% and less than 85%) | 5 (Level 5: growth control rate is above 85%) | 4 (Level 4: growth control rate is greater than or equal to 60% and less than 85%) |  |  |  | 
9 | Cn1c(C(F)(F)F)cc(=O)n(-c2cc(C3=NOC4(C(=O)N5CCCC5)CCCC34)c(Cl)cc2F)c1=O (centres unmarked) [Compound 427] | 5 (Level 5: growth control rate is above 85%) | 4 (Level 4: growth control rate is greater than or equal to 60% and less than 85%) | 5 (Level 5: growth control rate is above 85%) | 4 (Level 4: growth control rate is greater than or equal to 60% and less than 85%) |  |  |  | 
10 | COC(=O)C12CCC(F)C1C(c1cc(-n3c(=O)cc(C(F)(F)F)n(C)c3=O)c(F)cc1Cl)=NO2 (centres unmarked) [Compound 441] | 4 (Level 4: growth control rate is greater than or equal to 60% and less than 85%) | 4 (Level 4: growth control rate is greater than or equal to 60% and less than 85%) | 5 (Level 5: growth control rate is above 85%) | 4 (Level 4: growth control rate is greater than or equal to 60% and less than 85%) |  |  |  | 
11 | COC(=O)C12CCC(C)C1C(c1cc(-n3c(=O)cc(C(F)(F)F)n(C)c3=O)c(F)cc1Cl)=NO2 (centres unmarked) [Compound 443] | 5 (Level 5: growth control rate is above 85%) | 5 (Level 5: growth control rate is above 85%) | 5 (Level 5: growth control rate is above 85%) | 4 (Level 4: growth control rate is greater than or equal to 60% and less than 85%) |  |  |  | 
12 | CCOC(=O)C12CCC(=NOC)C1C(c1cc(-n3c(=O)cc(C(F)(F)F)n(C)c3=O)c(F)cc1Cl)=NO2 (centres unmarked) [Compound 451] | 4 (Level 4: growth control rate is greater than or equal to 60% and less than 85%) | 4 (Level 4: growth control rate is greater than or equal to 60% and less than 85%) | 5 (Level 5: growth control rate is above 85%) | 4 (Level 4: growth control rate is greater than or equal to 60% and less than 85%) |  |  |  | 
13 | CCOC(=O)C12ON=C(c3cc(-n4c(=O)cc(C(F)(F)F)n(C)c4=O)c(F)cc3Cl)C1CCC2Br (centres unmarked) [Compound 474] | 4 (Level 4: growth control rate is greater than or equal to 60% and less than 85%) | 4 (Level 4: growth control rate is greater than or equal to 60% and less than 85%) | 5 (Level 5: growth control rate is above 85%) | 4 (Level 4: growth control rate is greater than or equal to 60% and less than 85%) |  |  |  | 
14 | CCOC(=O)C12ON=C(c3cc(-n4c(=O)cc(C(F)(F)F)n(C)c4=O)c(F)cc3Cl)C1CCC2C (centres unmarked) [Compound 476] | 5 (Level 5: growth control rate is above 85%) | 5 (Level 5: growth control rate is above 85%) | 5 (Level 5: growth control rate is above 85%) | 4 (Level 4: growth control rate is greater than or equal to 60% and less than 85%) |  |  |  | 
